Measurements as given in PubChem BioAssay AID2060490 (Molecular Pharmacology Branch, DTP, NCI, 2025).

System: 885512-296-R-J2-PDC complex spheroid viability
Test: Anticancer human tumor 885512-296-R-J2-PDC patient-derived breast carcinoma cell line growth inhibition [GQUAD]
Conditions: for IC50: curve of first compound; for viability, T/C: stronger effect = lower value; active means viability on the fitted dose curve at most 10% of control; inactive means the rest
In short: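 Multi-cell-type spheroids of tumor cells with HUVEC and mesenchymal stem cells, treated with drug combinations. Concentrations descend in half-log steps from near clinical Cmax, or from 10 microM where Cmax is unknown; viability read-out.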

[1] = second compound 0.0316 µM, first compound 0.0316 µM
[2] = second compound 0.0316 µM, first compound 0.1 µM
[3] = second compound 0.0316 µM, first compound 0.316 µM
[4] = second compound 0.0316 µM, first compound 1 µM
[5] = second compound 0.0316 µM, first compound 3.16 µM
[6] = second compound 0.0316 µM, first compound 10 µM
[7] = second compound 0.1 µM, first compound 0.0316 µM
[8] = second compound 0.1 µM, first compound 0.1 µM
[9] = second compound 0.1 µM, first compound 0.316 µM
[10] = second compound 0.1 µM, first compound 1 µM
[11] = second compound 0.1 µM, first compound 3.16 µM
[12] = second compound 0.1 µM, first compound 10 µM
[13] = second compound 0.316 µM, first compound 0.0316 µM
[14] = second compound 0.316 µM, first compound 0.1 µM
[15] = second compound 0.316 µM, first compound 0.316 µM
[16] = second compound 0.316 µM, first compound 1 µM
[17] = second compound 0.316 µM, first compound 3.16 µM
[18] = second compound 0.316 µM, first compound 10 µM
[19] = second compound 1 µM, first compound 0.0316 µM
[20] = second compound 1 µM, first compound 0.1 µM
[21] = second compound 1 µM, first compound 0.316 µM
[22] = second compound 1 µM, first compound 1 µM
[23] = second compound 1 µM, first compound 3.16 µM
[24] = second compound 1 µM, first compound 10 µM
[25] = second compound 3.16 µM, first compound 0.0316 µM
[26] = second compound 3.16 µM, first compound 0.1 µM
[27] = second compound 3.16 µM, first compound 0.316 µM
[28] = second compound 3.16 µM, first compound 1 µM
[29] = second compound 3.16 µM, first compound 3.16 µM
[30] = second compound 3.16 µM, first compound 10 µM
[31] = second compound 10 µM, first compound 0.0316 µM
[32] = second compound 10 µM, first compound 0.1 µM
[33] = second compound 10 µM, first compound 0.316 µM
[34] = second compound 10 µM, first compound 1 µM
[35] = second compound 10 µM, first compound 3.16 µM
[36] = second compound 10 µM, first compound 10 µM
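Further: spheroids exposed to the compounds for one week.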
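Wherever viability, T/C is given: percent of tumor spheroid viability relative to DMSO vehicle control wells.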

COc1ccc([C@@H](O)c2cc(-c3ncnc4cc(N5CCOCC5)ccc34)c(F)cc2Cl)nn1 + Cc1[nH]c2ccc(F)cc2c1-c1nc2c3cccnc3c3ncccc3c2[nH]1
< 31.6 nM: IC50 (second compound 3.16 µM) | IC50 (second compound 10 µM)
4340 nM: IC50 (second compound 1 µM)
> 10000 nM: IC50 (second compound 0.0316 µM) | IC50 (second compound 0.1 µM) | IC50 (second compound 0.316 µM)
inactive: viability, T/C [1] 114% | viability, T/C [2] 92.6% | viability, T/C [3] 95.5% | viability, T/C [4] 100% | viability, T/C [5] 94.2% | viability, T/C [6] 58.7% | viability, T/C [7] 121% | viability, T/C [8] 98% | viability, T/C [9] 104% | viability, T/C [10] 94% | viability, T/C [11] 83.7% | viability, T/C [12] 51.7% | viability, T/C [13] 103% | viability, T/C [14] 96.7% | viability, T/C [15] 85.9% | viability, T/C [16] 94.4% | viability, T/C [17] 73.6% | viability, T/C [18] 57.5% | viability, T/C [19] 73.7% | viability, T/C [20] 85.9% | viability, T/C [21] 67.6% | viability, T/C [22] 68.7% | viability, T/C [23] 59.2% | viability, T/C [24] 30% | viability, T/C [25] 11.3%
active: viability, T/C [26] 6.47% | viability, T/C [27] 12.8% | viability, T/C [28] 5.75% | viability, T/C [29] 10.1% | viability, T/C [30] 3.06% | viability, T/C [31] 1.38% | viability, T/C [32] 2.32% | viability, T/C [33] 1.63% | viability, T/C [34] 1.42% | viability, T/C [35] 1.48% | viability, T/C [36] 1.5%

C=CCn1c(=O)c2cnc(Nc3ccc(N4CCN(C)CC4)cc3)nc2n1-c1cccc(C(C)(C)O)n1 + Cc1cnc(CNC(=O)c2c(=O)c3ccc(N4CCCN(C)CC4)nc3n3c2sc2ccccc23)cn1
active: viability, T/C [4] 7.28% | viability, T/C [5] 2.83% | viability, T/C [6] 2.53% | viability, T/C [10] 6.62% | viability, T/C [11] 2.73% | viability, T/C [12] 3.18% | viability, T/C [16] 7.07% | viability, T/C [17] 3% | viability, T/C [18] 3.66% | viability, T/C [21] 10.8% | viability, T/C [22] 4.65% | viability, T/C [23] 2.76% | viability, T/C [24] 2.44% | viability, T/C [27] 6.15% | viability, T/C [28] 0.28% | viability, T/C [29] 0.16% | viability, T/C [30] 0.17% | viability, T/C [31] 0.12% | viability, T/C [32] 0.16% | viability, T/C [33] 0.16% | viability, T/C [34] 0.15% | viability, T/C [35] 0.81% | viability, T/C [36] 0.81%
< 31.6 nM: IC50 (second compound 0.316 µM) | IC50 (second compound 1 µM) | IC50 (second compound 3.16 µM) | IC50 (second compound 10 µM)
198 nM: IC50 (second compound 0.0316 µM)
inactive: viability, T/C [1] 91.2% | viability, T/C [2] 80.3% | viability, T/C [3] 29.2% | viability, T/C [7] 58.3% | viability, T/C [8] 39.6% | viability, T/C [9] 19.6% | viability, T/C [13] 21.2% | viability, T/C [14] 16.4% | viability, T/C [15] 12% | viability, T/C [19] 22.6% | viability, T/C [20] 16.2% | viability, T/C [25] 21.4% | viability, T/C [26] 12.4%
53.1 nM: IC50 (second compound 0.1 µM)

C#Cc1c(F)ccc2cc(O)cc(-c3ncc4c(N5CC6CCC(C5)N6)nc(OCC56CCCN5CC(F)C6)nc4c3F)c12 (stereo not given) + CN(C)c1ccc(Nc2c3ccc(NC(=O)CCN4CCCC4)cc3nc3cc(NC(=O)CCN4CCCC4)ccc23)cc1
< 31.6 nM: IC50 (second compound 10 µM)
7980 nM: IC50 (second compound 3.16 µM)
active: viability, T/C [35] 13.9% | viability, T/C [36] 1.6%
> 10000 nM: IC50 (second compound 0.0316 µM) | IC50 (second compound 0.1 µM) | IC50 (second compound 0.316 µM) | IC50 (second compound 1 µM)
inactive: viability, T/C [1] 108% | viability, T/C [2] 95.7% | viability, T/C [3] 105% | viability, T/C [4] 96.8% | viability, T/C [5] 106% | viability, T/C [6] 87.6% | viability, T/C [7] 110% | viability, T/C [8] 86.5% | viability, T/C [9] 99.8% | viability, T/C [10] 98.4% | viability, T/C [11] 89% | viability, T/C [12] 85.4% | viability, T/C [13] 105% | viability, T/C [14] 99.3% | viability, T/C [15] 96.6% | viability, T/C [16] 89.2% | viability, T/C [17] 91.4% | viability, T/C [18] 87.5% | viability, T/C [19] 88.9% | viability, T/C [20] 97.7% | viability, T/C [21] 99% | viability, T/C [22] 102% | viability, T/C [23] 94.5% | viability, T/C [24] 104% | viability, T/C [25] 95.3% | viability, T/C [26] 106% | viability, T/C [27] 97.2% | viability, T/C [28] 89.4% | viability, T/C [29] 86.1% | viability, T/C [30] 41.2% | viability, T/C [31] 21.5% | viability, T/C [32] 15.8% | viability, T/C [33] 18.9% | viability, T/C [34] 13.7%

O=C(c1cc(Cc2n[nH]c(=O)c3ccccc23)ccc1F)N1CCN(C(=O)C2CC2)CC1 + Cc1[nH]c2ccc(F)cc2c1-c1nc2c3cccnc3c3ncccc3c2[nH]1
< 31.6 nM: IC50 (second compound 3.16 µM) | IC50 (second compound 10 µM)
8270 nM: IC50 (second compound 0.0316 µM)
active: viability, T/C [29] 6.15% | viability, T/C [30] 2.65% | viability, T/C [31] 2.34% | viability, T/C [32] 2.08% | viability, T/C [33] 3.14% | viability, T/C [34] 1.59% | viability, T/C [35] 1.27% | viability, T/C [36] 1.27%
8460 nM: IC50 (second compound 0.316 µM)
5090 nM: IC50 (second compound 1 µM)
inactive: viability, T/C [1] 105% | viability, T/C [2] 96.3% | viability, T/C [3] 124% | viability, T/C [4] 139% | viability, T/C [5] 134% | viability, T/C [6] 36% | viability, T/C [7] 98% | viability, T/C [8] 103% | viability, T/C [9] 119% | viability, T/C [10] 137% | viability, T/C [11] 146% | viability, T/C [12] 46.4% | viability, T/C [13] 94.3% | viability, T/C [14] 99.2% | viability, T/C [15] 112% | viability, T/C [16] 150% | viability, T/C [17] 131% | viability, T/C [18] 38.7% | viability, T/C [19] 75.2% | viability, T/C [20] 74.4% | viability, T/C [21] 82.4% | viability, T/C [22] 101% | viability, T/C [23] 70.5% | viability, T/C [24] 21% | viability, T/C [25] 13.8% | viability, T/C [26] 13.9% | viability, T/C [27] 16.7% | viability, T/C [28] 14.9%
9460 nM: IC50 (second compound 0.1 µM)

O=C(NO)c1cnc(N2CCN(S(=O)(=O)c3ccc4ccccc4c3)CC2)nc1 + Cc1cnc(CNC(=O)c2c(=O)c3ccc(N4CCCN(C)CC4)nc3n3c2sc2ccccc23)cn1
< 31.6 nM: IC50 (second compound 0.1 µM) | IC50 (second compound 0.316 µM) | IC50 (second compound 1 µM) | IC50 (second compound 3.16 µM) | IC50 (second compound 10 µM)
active: viability, T/C [4] 5.79% | viability, T/C [5] 0.51% | viability, T/C [6] 0.13% | viability, T/C [10] 6.31% | viability, T/C [11] 0.49% | viability, T/C [12] 0.43% | viability, T/C [17] 0.43% | viability, T/C [18] 0.1% | viability, T/C [21] 13.7% | viability, T/C [22] 0.1% | viability, T/C [23] 0.07% | viability, T/C [24] 0.11% | viability, T/C [26] 6.5% | viability, T/C [27] 0.13% | viability, T/C [28] 0.1% | viability, T/C [29] 0.09% | viability, T/C [30] 0.12% | viability, T/C [31] 0.07% | viability, T/C [32] 0.15% | viability, T/C [33] 0.15% | viability, T/C [34] 0.12% | viability, T/C [35] 0.15% | viability, T/C [36] 0.17%
inactive: viability, T/C [1] 65.9% | viability, T/C [2] 38.7% | viability, T/C [3] 23.6% | viability, T/C [7] 42.8% | viability, T/C [8] 37.7% | viability, T/C [9] 27.8% | viability, T/C [13] 22.8% | viability, T/C [14] 19.5% | viability, T/C [15] 21.7% | viability, T/C [16] 7.7% | viability, T/C [19] 19.3% | viability, T/C [20] 14.9% | viability, T/C [25] 10%
64.4 nM: IC50 (second compound 0.0316 µM)
